# In patent publication US8541460B2, “PDK-1/Akt signaling inhibitors” (The Ohio State University, priority 2003, dated 2013):
# Experiments:
# PC-3 cells = experiment: Apoptosis analysis (DNA fragmentation ELISA, PARP cleavage); type: cell-based, human; conditions: 1% FBS-containing medium
# Protocol: Apoptosis analysis Two methods were used to assess drug-induced apoptotic cell death: detection of DNA fragmentation by the Cell Death Detection ELISA kit (Roche Diagnostics. Mannheim, Germany) and Western blot analysis of poly-(ADP-ribose)polymerase (PARP) cleavage. […] In brief, 4×10^5 PC-3 cells were cultured in a T-25 flask for 24 h before treatment. Cells were treated with the DMSO vehicle or the test agent at the indicated concentrations for 6-24 h, collected, and cell lysates equivalent to 2×10^3 PC-3 cells were used in the ELISA. For the PARP cleavage assay, drug-treated cells were collected 4-8 h post-treatment, washed with ice-cold PBS, and resuspended in lysis buffer containing 20 mM Tris-HCl, pH 8, 137 mM NaCl, 1 mM CaCl2, 10% glycerol, 1% Nonidet P-40, 0.5% deoxycholate, 0.1% SDS, 100 μM 4-(2-aminoethyl)benzenesulfonyl fluoride, leupeptin at 10 μg/mL, and aprotinin at 10 μg/mL. Soluble cell lysates were collected after centrifugation at 10,000 g for 5 min. Equivalent amounts of proteins (60-100 μg) from each lysate were resolved in 8% SDS-polyacrylamide gels. Bands were transferred to nitrocellulose membranes, and analyzed by immunoblotting with anti-PARP antibody.
# RPMI-8226 = experiment: NCI DTP cell line screen (SRB), Leukemia; type: cell-based, human; conditions: for TGI: in M (unit assumed)
# Protocol: (§1) Screening of compounds 70 and 71 against several cancer cell lines The human tumor cell lines of the cancer screening panel are grown in RPMI 1640 medium containing 5% fetal bovine serum and 2 mM L-glutamine. For a typical screening experiment, cells are inoculated into 96 well microtiter plates in 100 μL at plating densities ranging from 5,000 to 40,000 cells/well depending on the doubling time of individual cell lines. After cell inoculation, the microtiter plates are incubated at 37° C., 5% CO2, 95% air and 100% relative humidity for 24 h prior to addition of experimental drugs.
# (§2) After 24 h, two plates of each cell line are fixed in situ with TCA, to represent a measurement of the cell population for each cell line at the time of drug addition (Tz). Experimental drugs are solubilized in dimethyl sulfoxide at 400-fold the desired final maximum test concentration and stored frozen prior to use. At the time of drug addition, an aliquot of frozen concentrate is thawed and diluted to twice the desired final maximum test concentration with complete medium containing 50 μg/ml gentamicin. Additional four, 10-fold or ½ log serial dilutions are made to provide a total of five drug concentrations plus control. Aliquots of 100 μl of these different drug dilutions are added to the appropriate microtiter wells already containing 100 μl of medium, resulting in the required final drug concentrations.
# (§3) Following drug addition, the plates are incubated for an additional 48 h at 37° C., 5% CO2, 95% air, and 100% relative humidity. For adherent cells, the assay is terminated by the addition of cold TCA. Cells are fixed in situ by the gentle addition of 50 μl of cold 50% (w/v) TCA (final concentration, 10% TCA) and incubated for 60 minutes at 4° C. The supernatant is discarded, and the plates are washed five times with tap water and air dried. Sulforhodamine B (SRB) solution (100 μl) at 0.4% (w/v) in 1% acetic acid is added to each well, and plates are incubated for 10 minutes at room temperature. After staining, unbound dye is removed by washing five times with 1% acetic acid and the plates are air dried. Bound stain is subsequently solubilized with 10 mM trizma base, and the absorbance is read on an automated plate reader at a wavelength of 515 nm. For suspension cells, the methodology is the same except that the assay is terminated by fixing settled cells at the bottom of the wells by gently adding 50 μl of 80% TCA (final concentration, 16% TCA). Using the seven absorbance measurements [time zero, (Tz), control growth, (C), and test growth in the presence of drug at the five concentration levels (Ti)], the percentage growth is calculated at each of the drug concentrations levels. Percentage growth inhibition is calculated as: [(Ti−Tz)/(C−Tz)]×100 for concentrations for which Ti>/=Tz [(Ti−Tz)/Tz]×100 for concentrations for which Ti<Tz
# (§4) Three dose response parameters are calculated for each experimental agent. […] The drug concentration resulting in total growth inhibition (TGI) is calculated from Ti=Tz. […] Values are calculated for each of these three parameters if the level of activity is reached; however, if the effect is not reached or is exceeded, the value for that parameter is expressed as greater or less than the maximum or minimum concentration tested.
# (§5) The methods described were used to test compounds 70 and 71 on a panel of sixty cell lines under a screening service provided by the Developmental Therapeutics Program at the National Institutes of Health. Shown in FIG. 1C are 1, RPMI-8226 leukemia cells; 2; NCI-H322M non-small cell lung cancer cells; 3, HT29 colon cancer cells; 4, U251 CNS cancer cells; 5, SK-MEL-28 melanoma cancer cells; 6, SK-OV-3 ovarian cancer cells; 7, RXF 393 renal cancer cells; 8, PC-3 prostate cancer cells; 9, MDA-MB-231 breast cancer cells.
# HT29 = experiment: NCI DTP cell line screen (SRB), Colon Cancer; type: cell-based
# SK-MEL-5 = experiment: NCI DTP cell line screen (SRB), Melanoma; type: cell-based, human; conditions: for TGI: in M (unit assumed)
# Protocol: as §1, §2, §3, §4, §5
Structure (SMILES),apoptotic death in PC-3 cells (DNA fragmentation and PARP cleavage) (PC-3 cells),Percent Growth (RPMI-8226; Log10 Concentration −4.0) [%],Percent Growth (RPMI-8226; Log10 Concentration −5.0) [%],Percent Growth (RPMI-8226; Log10 Concentration −6.0) [%],Percent Growth (RPMI-8226; Log10 Concentration −7.0) [%],Percent Growth (RPMI-8226; Log10 Concentration −8.0) [%],TGI (RPMI-8226),TGI (HT29),Percent Growth (HT29; Log10 Concentration −4.0) [%],Percent Growth (HT29; Log10 Concentration −5.0) [%],Percent Growth (HT29; Log10 Concentration −6.0) [%],Percent Growth (HT29; Log10 Concentration −7.0) [%],Percent Growth (HT29; Log10 Concentration −8.0) [%],Percent Growth (SK-MEL-5; Log10 Concentration −4.0) [%],Percent Growth (SK-MEL-5; Log10 Concentration −5.0) [%],Percent Growth (SK-MEL-5; Log10 Concentration −6.0) [%],Percent Growth (SK-MEL-5; Log10 Concentration −7.0) [%],Percent Growth (SK-MEL-5; Log10 Concentration −8.0) [%],TGI (SK-MEL-5),other results
"NCC(=O)Nc1ccc(-n2nc(C(F)(F)F)cc2-c2ccc3c(ccc4ccccc43)c2)cc1 [Compound 70, 2-Amino-N-{4-[5-(2-phenanthrenyl)-3-(trifluoromethyl)-1H-pyrazol-1-yl]-phenyl}-acetamide]",induced apoptotic death in PC-3 cells in 1% FBS-containing medium in a dose-dependent manner,−31,−51,42,72,85,2.84E−06,2.64E−06,−26,−65,47,88,92,−34,−75,69,88,91,3.02E−06,–
"N=C(N)Nc1ccc(-n2nc(C(F)(F)F)cc2-c2ccc3c(ccc4ccccc43)c2)cc1 [Compound 71, 4-[5-(2-Phenanthrenyl)-3-(trifluoromethyl)-1H-pyrazol-1-yl]-phenyl-guanidine]",induced apoptotic death in PC-3 cells in 1% FBS-containing medium in a dose-dependent manner,−47,−95,52,65,58,2.25E−06,2.83E−06,−99,−100,82,91,95,−34,−74,116,111,97,4.07E−06,GI50 (RPMI-8226): 1030 nM; Mean Optical Densities (RPMI-8226; Log10 Concentration −4.0): 0.176; Mean Optical Densities (RPMI-8226; Log10 Concentration −5.0): 0.016; Mean Optical Densities (RPMI-8226; Log10 Concentration −6.0): 0.513; Mean Optical Densities (RPMI-8226; Log10 Concentration −7.0): 0.559; Mean Optical Densities (RPMI-8226; Log10 Concentration −8.0): 0.536; GI50 (HT29): 1500 nM; Mean Optical Densities (HT29; Log10 Concentration −4.0): 0.003; Mean Optical Densities (HT29; Log10 Concentration −5.0): −0.054; Mean Optical Densities (HT29; Log10 Concentration −6.0): 1.136; Mean Optical Densities (HT29; Log10 Concentration −7.0): 1.238; Mean Optical Densities (HT29; Log10 Concentration −8.0): 1.276; CC50 (HT29; read-out: LC50 (the source's name)): 5320 nM; GI50 (SK-MEL-5): 2220 nM; Mean Optical Densities (SK-MEL-5; Log10 Concentration −4.0): 0.363; Mean Optical Densities (SK-MEL-5; Log10 Concentration −5.0): 0.143; Mean Optical Densities (SK-MEL-5; Log10 Concentration −6.0): 1.812; Mean Optical Densities (SK-MEL-5; Log10 Concentration −7.0): 1.762; Mean Optical Densities (SK-MEL-5; Log10 Concentration −8.0): 1.611
